Results from publication PMC9146374, “Extra Virgin Olive Oil Secoiridoids Modulate the Metabolic Activity of Dacarbazine Pre-Treated and Treatment-Naive Melanoma Cells” (Molecules, 2022).
Several values for one entry are separate records, joined by “and”; a condition that tells them apart may be missing. Equal entries are not always repeated. Where two headings read alike, the source gives them in different places.

Legend:
501Mel melanoma cells = tested on: 501Mel melanoma cells; parameters: method as in earlier work; conditions: ref 22 (Carpi et al.); read-out: IC50 of OCEIN on 501Mel melanoma cells; cited from earlier work
A375 melanoma cell line = test: MTS assay of metabolic activity (cell viability), 48 h exposure, A375 cells; format: cell-based, human; conditions: for IC60 / IC50: A375, 48 h, MTS, ± SEM; for IC60: concentration decreasing biological activity to 60%
Procedure: (§1) Biological activity upon treatment with EVOO-PEs, DTIC, OCEIN, and OCAL was evaluated using an MTS assay in in vitro experimental models, including the A375 and A375M cancer cell lines and HaCaT immortalized cell line. […] Due to the fast cell growth rate, a longer incubation period or denser initial seeding caused the overgrowth of untreated cells. In comparison, a shorter incubation period or lower initial density caused the effect of the test substances to be more difficult to detect. Therefore, the experiments were performed within a 48-hour timeframe. In addition, to avoid the misinterpretation of the results, we checked whether the vehicle, which was DMSO for the test substances, had any effect on metabolic activity by exposing each cell type to 0.2 and 0.4% DMSO, i.e., to the highest final DMSO concentrations achieved with the highest final concentrations of test substances. […] Accordingly, the effects of the test substances were determined as relative biological activities (in terms of cell viability, i.e., cell survival) compared to the untreated cells (controls). The cells were treated with a series of dilutions made by diluting full strength (100%) EVOO-PE to concentrations of 0.025–0.400 % (v/v) of EVOO-PE in the medium.
(§2) Cells were grown in complete cell culture media, consisting of RPMI 1640, 2 mmol/L glutamine, 10% heat-inactivated foetal bovine serum (FBS), penicillin (100 IU/mL; 1 IU 67.7 µg/mL), and streptomycin (100 µg/mL). Cultures were maintained in a moisturized atmosphere with 5% CO2 at 37 °C and 95% relative humidity. All experiments were performed on cells between passages 4 and 8. The biological activity of the three EVOO-Pes, DTIC, OCEIN, and OCAL, as well as biological activity of the three EVOO-PEs following 6 h pre-incubation with DTIC was determined using a CellTiter 96®AQueous One Solution Cell Proliferation Assay. In short, 100 µL of cell cultures was seeded into 96-well tissue culture plates (A375 and HaCaT at a concentration of 2 × 10^3 cells/well, A375M at 7 × 10^3 cells/well). The next day, the medium was aspirated and media containing different concentrations of compounds were added to each well. All test compounds except DTIC were initially dissolved in DMSO and serially diluted in culture medium to obtain the final concentrations. DTIC was initially dissolved in culture medium, warmed to 37 °C, activated during 1 h exposure to light, and diluted in culture medium. The controls contained the test model cells and culture medium (containing either the complete medium or the DMSO in the highest final concentration, 0.2% and 0.4%) but no test compounds. The cells were incubated for 48 h before biological activity was measured. When investigating the combined effect, we exposed cells to DTIC for 6 h, removed the medium, and exposed the cells to medium containing EVOO-PE extracts for the next 24 h. In addition to the non-treated cells, the controls for experiments with DTIC pre-incubation were cells that had been exposed to DTIC for 6 h and cultured in a complete medium afterwards (without EVOO-PE). After incubation, media were aspirated, and 90 µL of serum-free medium containing MTS was added, according to the manufacturer’s instructions. After 1.5 h of incubation in the dark, the absorbance was measured at a wavelength of 490 nm using a microplate reader, Victor2-1420 Multilabel Counter (PerkinElmer, Yokohama, Japan). A negative control (medium without cells) was used as a blank. All experiments were performed in hexaplicate.
(§3) The GraphPad Prism software version 9.0.0 for Windows (GraphPad Software, San Diego, CA, USA), was used for the determination of inhibitory concentration as well as for statistical analysis. The normality of the data distribution was accessed using Kolmogorov–Smirnov and Shapiro–Wilk tests. The IC60 and IC50 values (concentrations that reduced cell growth to 60% or 50% of the initial value, respectively) were determined using a nonlinear regression curve fit. […]

[1] = tested on: A375M metastatic melanoma cell line; test: MTS assay of metabolic activity (cell viability), 48 h exposure, A375M cells; format: cell-based, human; conditions: for effect on A375M cells: Figure S5b
Procedure: as §1
as §2, with “The controls contained the test model cells and culture medium (containing either the complete medium or the DMSO in the highest final concentration, 0.2% and 0.4%) but no test compounds.” left out, “When investigating the combined effect, we exposed cells to DTIC for 6 h, removed the medium, and exposed the cells to medium containing EVOO-PE extracts for the next 24 h. In addition to the non-treated cells, the controls for experiments with DTIC pre-incubation were cells that had been exposed to DTIC for 6 h and cultured in a complete medium afterwards (without EVOO-PE). After incubation, media were aspirated, and 90 µL of serum-free medium containing MTS was added, according to the manufacturer’s instructions.” left out, “A negative control (medium without cells) was used as a blank. All experiments were performed in hexaplicate.” left out

[2] = tested on: HaCaT immortalized keratinocytes; test: MTS assay of metabolic activity (cell viability), 48 h exposure, HaCaT cells; format: cell-based; conditions: ± SEM, DTIC applied up to 1000 µM, italic values extrapolated; for IC50: Homo sapiens
Procedure: as §1, §2, §3

A375 cells = conditions: cited from earlier work; for IC50: homemade isolated OCAL purified to 95%

IC50 (A375 melanoma cell line) [µM] | IC50 (A375 melanoma cell line; Homo sapiens, A-375, 48 h) [µM] | IC50 ([1]; Homo sapiens, A375M, ± SEM, DTIC applied up to 1000 µM, interpret with caution) [µM] | Structure (SMILES) | IC50 (501Mel melanoma cells) [µM] | IC60 (A375 melanoma cell line) | effect on A375M cells [1] | IC50 [2] [µM] | IC60 [2] [µM] | IC60 ([1]; A375M, ± SEM, DTIC applied up to 1000 µM, interpret with caution) [µM] | viability at 60 µM (A375 melanoma cell line; Homo sapiens, A-375, 60 µM OCAL, cell line not given, read-out: viability compared to control) [%] | viability compared to control (A375 cells; 60 µM OCAL (highest applied), cell line not given, ref 25 (Gu et al.)) | IC50 (A375 cells; ref 24 (Fogli et al.)) [µM] | IC50 (A375 cells; ref 25 (Gu et al.)) [µM]
113 ± 4.92 | 112 |  | CC=C(C=O)C(CC=O)CC(=O)OCCc1ccc(O)c(O)c1 (centres unmarked) [OCEIN, oleacein] | 82 | 101.052 µM and 101.052 ± 4.610 µM | failed to provoke any effect | 114 ± 2.3 | 103.061 ± 2.086 |  |  |  |  | 
 | 362 | 872 ± 62.2 | CN(C)/N=N/c1[nH]cnc1C(N)=O [DTIC, dacarbazine] |  | 214.358 ± 13.449 µM |  | > 1000 | 1137 ± 93.752 | 709.780 ± 99.634 |  |  |  | 
67.5 ± 1.86 | 67 |  | C/C=C(/C=O)[C@@H](CC=O)CC(=O)OCCc1ccc(O)cc1 [OCAL, oleocanthal] |  | 58.488 µM and 58.488 ± 1.836 µM | failed to provoke any effect | 130 ± 3.21 | 112.827 ± 2.904 |  | ~80 | ~ 80% | 13.6 | ~20
